The values below come from PMC7238976 (Phytochemistry, 2020).

In general, IC50 refers to the concentration that inhibits the measured activity by half. As usually defined, the CC50 is the concentration at which the toxic effect on the cells reaches its halfway point.

Where two headings read alike, the source gives them in different places.

One data set has as its system HIV. To be noted: read-out: Anti-HIV IC50 (literature); ref Olivon, et al., 2017; cited from earlier work.
A short description of data set [1]: Cytotoxicity toward MT4 cells. It is filed as cell-based. To be noted: human.
A further data set relates to HL4–3 virus. The experiment in a line: Anti-HIV-1 activity against HL4–3 virus in MT4 cells. It is filed as cell-based.
The next data set deals with MT4 cells. The experiment in a line: Cytotoxicity toward MT4 cells. It is filed as cell-based. As to conditions: read-out: Cytotoxicity CC50, means, n = 3.
Where [2] appears, read: read-out: Anti-HIV-1 IC50, HL4–3 virus in MT4 cells, means, n = 3.

As for `CCCCCCCCCCCCCCCC(=O)O[C@@]12C[C@@H](C)[C@@]3(O)[C@H]([C@@H]1C2(C)C)[C@H](O)[C@](O)(CO)[C@@H](O)[C@]1(O)C(=O)C(C)=C[C@H]13` [12-deoxy-5β-6β-7α-trihydroxy-phorbol-13-hexadecanoate], in the data set with HIV, the IC50 is 0.257 µM.

For the compound `CCCCCCCCCCCCCCCC(=O)O[C@@]12C[C@@H](C)[C@]3(O)[C@@H]4C=C(C)C(=O)[C@@]4(O)[C@H](O)C(CO)=C[C@H]3[C@@H]1C2(C)C` [12-deoxy-5β-hydroxy-phorbol-13-hexadecanoate], in the data set on HIV, the IC50 was 0.002 µM.

Regarding `Cc1cn([C@H]2C[C@H](N=[N+]=[N-])[C@@H](CO)O2)c(=O)[nH]c1=O` [AZT, zidovudine, reference compound], the CC50 in data set [1] was over 0.37 µM. For the same compound, the IC50 with HL4–3 virus (Human immunodeficiency virus 1, MT4, read-out: Anti-HIV-1 IC50) was determined as 0.0187 µM. Besides, the “Selectivity index SI” value with HL4–3 virus (ratio of CC50 and anti-HIV IC50) was over 20.

For the compound `CCCCCCCCCCCCCCCC(=O)O[C@@]12C[C@@H](C)[C@@]3(O)[C@@H](C=C(CO)C[C@]4(O)C(=O)C(C)=C[C@@H]34)[C@@H]1C2(C)C` [Compound 7, 12-deoxyphorbol-13-hexadecanoate], in the data set on MT4 cells, the CC50 is over 1.7 µM. Moreover, in the data set on HL4–3 virus (setting [2]), the IC50 amounted to 0.0023 µM.

For the compound `CCCCCCCCCCCCCC(=O)O[C@@]12C[C@@H](C)[C@@]3(O)[C@@H](C=C(CO)C[C@]4(O)C(=O)C(C)=C[C@@H]34)[C@@H]1C2(C)C` [Compound 8, 12-deoxyphorbol-13-myristate], the CC50 in the data set with MT4 cells is over 1.8 µM. The IC50 in the data set with HL4–3 virus (setting [2]) was 0.022 µM.

As to Crotignoid L [Compound 1], the CC50 with MT4 cells is over 1.8 µM. Moreover, the IC50 in the data set with HL4–3 virus (setting [2]) came to 0.22 µM.

As for Crotignoid M [Compound 2], in the data set on MT4 cells, the CC50 was over 1.7 µM. Moreover, the IC50 in the data set with HL4–3 virus (setting [2]) came out at 0.038 µM.

On to Crotignoid N [Compound 3], for which the 50% cytotoxic concentration (CC50) in the data set with MT4 cells was over 1.6 µM. For the same compound, the IC50 with HL4–3 virus (setting [2]) stood at 0.31 µM.

With Crotignoid O [Compound 4], in the data set on MT4 cells, the CC50 is over 1.8 µM. Also, the IC50 with HL4–3 virus (setting [2]) was found to be 4.03 µM.

As for Crotignoid P [Compound 5], the CC50 in the data set on MT4 cells was over 1.6 µM. Further, in the data set on HL4–3 virus (setting [2]), the IC50 was determined as 0.1 µM.

For Crotignoid Q [Compound 6], the CC50 in the data set on MT4 cells is over 1.9 µM. Further, the “Anti-HIV activity (in words)” value with HL4–3 virus (HL4–3 virus in MT4 cells) is recorded as “did not show anti-HIV activity”. In addition, the IC50 in the data set on HL4–3 virus (setting [2]) was over 1.9 µM.
